In article PMC5602538, “Assessment of the Drug Interaction Potential of Unconjugated and GalNAc3-Conjugated 2′-MOE-ASOs” (Molecular Therapy. Nucleic Acids, 2017):
{GalNAc3} = trishexylamino-C6 triantennary GalNAc conjugate; e = 2'-O-(2-methoxyethyl) (MOE); d = 2'-deoxy (DNA)

Assays:
human hepatocytes = test: Hepatocyte uptake (cell pellet and supernatant concentrations by LC-UV/MS); format: in vitro ADME; conditions: for Cellular concentration in hepatocytes: test concentration of 1.00 μM
Procedure: A time-course experiment was conducted in triplicate for each concentration of test compound for 0, 30, 60, and 120 min incubations at 37°C with 5% CO2. At the end of each respective time point, the cell suspensions were centrifuged for 8 min at a speed of 50 × g, and the supernatant from each sample was collected. The cell pellets were washed by resuspension in Williams’ Medium E, followed by centrifugation at 50 × g for 8 min. The supernatant from the wash step was discarded and the remaining cell pellets were kept for analysis. Cell pellets and respective supernatants were measured for the presence of ASO by LC-MS.
Samples were analyzed using a tandem LC-UV/MS method. A total of 72 samples per ASO, corresponding to human hepatocyte cells and supernatant fractions, was assayed. Samples, curves, and controls (QCs) were aliquoted into 96-well plates and internal standard was added. Aliquots in 96-well plates were extracted via a liquid-liquid extraction using ammonium hydroxide and phenol:chloroform:isoamyl alcohol (25:24:1). The aqueous layer was then further processed via solid phase extraction (Phenomenex, Strata X SPE), and then dried down under nitrogen and reconstituted in 140 μL of water containing 100 μM EDTA. Samples were then injected onto an Agilent 6130 LC-MS system for analysis. Two curves were created for quantitation, one utilizing UV absorbance at 260 nm and an additional curve using single ion monitoring data from the mass spectrometer. The calibration range using the MS detector was 0.0640–641 μM with liver homogenate, as used to quantitate the concentration in hepatocyte pellet samples. A minimum signal-to-noise ratio of 5:1 was used to distinguish ASO peaks from background noise. […] Acceptance criteria for calibration and QC standards were set to 85%–115% of nominal values. For the MS, three QC levels were run in triplicate at 1.60 μM, 160 μM, and 481 μM and eight of the nine QCs passed. For the UV, three QC levels were run in triplicate at 160 μM, 481 μM, and 3,205 μM and all QCs passed. All samples were stored at −70°C ± 10°C upon receipt. Hepatocyte cell count conversion to μM liver weight equivalent was calculated by converting the number of hepatocytes per sample to the liver weight equivalent: [(0.1 × 10^6 cells per sample)/128 × 10^6 cells/g)] × […] = 0.78 mg, where 1 g of liver contains 128 × 10^6 cells/g. Supernatant concentrations are calculated assuming a 100% recovery and that 1 mL William E Medium is equal to 1 g. The calibration range for ASOs in transporter studies was 0.01–10 μM in 100 μL for RLT buffer and 0.005–10 μM in 100 μL for HBSS buffer.

BSEP = system: T1, BSEP; test: BSEP substrate study in Sf9 membrane vesicles; format: in vitro ADME; conditions: 10 μM ASO, ATP vs AMP
T1 construct: purchased Life Technologies; host or cells: Sf9 cells (membrane vesicles)
Procedure: The test system included a 96-well flat bottom plate containing a suspension of vesicles and a 96-well glass fiber filtration plate. Transport experiments were initiated with the addition of Mg-ATP (for ATP-dependent BSEP uptake) or AMP (non-ATP-dependent uptake) to appropriate wells. Preparation of the flat-bottom plates included incubation with blocking buffer for 60 min at 37°C with orbital shaking at 120 rpm. After 60 min, the blocking buffer was completely removed and assay uptake buffer solutions were added. For BSEP inhibition studies, solutions contained 1 μM [^3H]-taurocholic acid as a substrate and either assay vehicle, test article (at 100 μM), or reference inhibitor (300 μM rifampicin). For BSEP substrate studies, solutions contained either 1 μM [^3H]-taurocholic acid or 10 μM test article. Vesicles were added to assay plates and incubated at 37°C with orbital shaking at 120 rpm for 15 min. To initiate the assay, either Mg-ATP or AMP was added to test wells at a final concentration of 5 mM. Plates were incubated at 37°C with orbital shaking at 120 rpm for 15 min. A glass fiber filtration plate was incubated with blocking buffer for 2 min. Vacuum was then applied to remove the blocking buffer, and ice-cold wash buffer was added to the filtration plate. Vesicular transport was quenched by adding ice-cold wash buffer. Assay samples were then mixed as diluted in wash buffer and 175 μL was transferred into the 96-well glass fiber filtration plate to separate vesicles. […] These samples were counted using a 1450 Microbeta (Perkin-Elmer). […] The test article was quantitated by LC-MS. […]
Signal to noise for the BSEP probe substrate was calculated by dividing the uptake of the probe substrate in BSEP-expressing vesicles in the presence of ATP by the uptake of the BSEP substrate in the vesicles in the presence of AMP. Percent inhibition in the presence of the test article or the reference inhibitors was calculated as: %inhibition=100−(100×(ATP−dependent,transportor−mediatedaccumulation)withinhibitor/(ATP−dependent,transportor−mediatedaccumulation)withoutinhibitor).

Row | Substance | Average cellular concentration in hepatocytes (human hepatocytes; after 30-min incubation) [µM] | Average cellular concentration in hepatocytes (human hepatocytes; after 120-min incubation) [µM] | BSEP-mediated uptake relative to corresponding controls (BSEP) [fold] | Cellular concentration in hepatocytes (human hepatocytes; after 120 min of incubation) [µM] | Cellular concentration in hepatocytes (human hepatocytes; time points 0–60 min)
1 | ISIS 304801: 20-mer (5-10-5) 2′-MOE gapmer PS backbone antisense inhibitor of apoC-III, sequence AGCTTCTTGTCCAGCTTTAT (sugars from the 5' end e5 d10 e5, all phosphorothioate, methylation of C not given here) | 56.3 | 140 | < 2 |  | 
2 | ISIS 420915: 20-mer 2′-MOE gapmer PS backbone antisense inhibitor of transthyretin, sequence TCTTGGTTACATGAAATCCC (all phosphorothioate, sugars by position and methylation of C not given here; 2'-MOE gapmer) | 52.2 | 106 | < 2 |  | 
3 | ISIS 681257: 20-mer 2′-MOE gapmer PS/PO mixed backbone ASO conjugated to 5′-trishexylamino GalNAc3, targets Lp(a), sequence TGCTCCGTTGGTGCTTGTTC (5' {GalNAc3}, sugars by position and backbone not given here; 2'-MOE gapmer with mixed PS/PO backbone) | 14.0 | 50.6 | < 2 | 0.626 | below the level of quantitation
